target: T1, human α7 receptor (Homo sapiens, UniProt P36544); assay: α7 NNR flux assay (FDSS Ca assay, Calcium-4 dye, positive allosteric modulation of acetylcholine response); assay type: cell-based; conditions: human α7 receptor stably expressed in rat GH4C1 cell line; acetylcholine 20 μM (~EC100); % modulation relative to reference PNU-120596 set to 100%
T1 construct: host or cells: rat GH4C1 cell line
Protocol: The nicotinic acetylcholine receptor α7 is a calcium-permeable ion channel, whose activity can be measured by over expression in mammalian cells or oocytes in this version of the assay, the human α7 receptor is stably expressed in the rat GH4C1 cell line. The assay was used to identify positive allosteric modulators (PAMs) of the α7 receptor. Activation of the channel was measured by loading cells with the calcium-sensitive fluorescent dye Calcium-4 (Assay kit from Molecular Devices), and then measuring real-time changes in fluorescence upon treatment with test compounds.
The cell line ChanClone GH4C1-nAChRalpha7 from Genionics was seeded from frozen stock in 384-well plates in culture media 2-3 days before experiment to form an approximately 80% confluent layer on the day of experiment.
Two or three days before the experiment the cells were seeded in 384 well plates from Greiner bio-one (781946, CELLCOAT, Poly-D-Lysine, black, μClear).
The cells were seeded in 384 well plates with 30 μL/well (30000 cells/well) while stirring the cell suspension or otherwise preventing the cells from precipitating.
The loading buffer was 5% v/v Calcium-4 Kit and 2.5 mM Probenecid in assay buffer.
Culture media were removed from the cell plates and 20 μL loading buffer was added in each well. The cell plates were placed in trays and incubated 90 minutes in the incubator (37° C.). Thereafter the plates were incubated 30 minutes at room temperature, still protected from light.
The assay buffer was HBSS with 20 mM HEPES, pH 7.4 and 3 mM CaCl2.
200 nL 10 mM compound solution in DMSO was diluted in 50 μL assay buffer. The final test concentrations in the cell plates were 20-10-5-2.5-1:25-0.625-0.312-0.156-0.078-0.039 μM. Assay buffer and 3 μM PNU-120596 were used for control.
The agonist acetylcholine was added to a final concentration of 20 μM (˜EC100).
In the FDSS7000 the Ex480-Em540 was measured with 1 second intervals. The baseline was made of 5 frames before addition of test compounds, and 95 frames more were made before addition of acetylcholine. The measurement stopped 30 frames after the 2nd addition. Raw data for each well were collected as “the maximum fluorescence count” in the interval 100-131 seconds and as “the average fluorescence count” in the interval 96-100 seconds. The positive allosteric modulation in the 2nd addition was the enhancement of agonist response with test compound compared to agonist alone.
Results were calculated as % modulation of test compound compared to the reference PNU-120596 set to 100%.

T1 sequence (P36544 23-502): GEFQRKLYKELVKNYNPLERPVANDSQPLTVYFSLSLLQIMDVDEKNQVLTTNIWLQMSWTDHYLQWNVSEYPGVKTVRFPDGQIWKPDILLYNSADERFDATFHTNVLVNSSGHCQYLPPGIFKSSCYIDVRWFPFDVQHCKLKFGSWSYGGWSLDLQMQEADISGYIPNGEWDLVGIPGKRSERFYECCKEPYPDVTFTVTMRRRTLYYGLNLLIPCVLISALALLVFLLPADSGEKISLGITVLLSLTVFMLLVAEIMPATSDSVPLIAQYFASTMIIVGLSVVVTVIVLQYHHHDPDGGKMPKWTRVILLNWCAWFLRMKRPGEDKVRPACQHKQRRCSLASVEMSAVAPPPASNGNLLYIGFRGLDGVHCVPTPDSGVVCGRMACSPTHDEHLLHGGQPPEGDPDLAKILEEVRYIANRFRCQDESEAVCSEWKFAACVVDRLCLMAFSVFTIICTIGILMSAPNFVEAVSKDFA

| EC50 [µM] | Compound |
| --- | --- |
| 5.8 | COc1ccc([C@H](C)NC(=O)[C@H]2C[C@@H]2c2ccccc2)cn1 [Compound 3, (S, 2S)-2-Phenyl-cyclopropanecarboxylic acid-[(S)-1-(6-methoxy-pyridin-3-yl)-ethyl]-amide] |
| 0.96 | CCOc1ccc([C@H](C)NC(=O)[C@H]2C[C@@H]2c2ccccc2)cn1 [Compound 7, (1S,2S)-2-Phenyl-cyclopropanecarboxylic acid [(S)-1-(6-ethoxy-pyridin-3-yl)-ethyl]-amide] |
| 3.8 | COCCOc1ccc([C@H](C)NC(=O)[C@H]2C[C@@H]2c2ccccc2)cn1 [Compound 11, (1S,2S)-2-Phenyl-cyclopropanecarboxylic acid {(S)-1-[6-(2-methoxy-ethoxy)-pyridin-3-yl]-ethyl}-amide] |
| 0.64 | CCCOc1ccc([C@H](CO)NC(=O)[C@H]2C[C@@H]2c2ccccc2)cn1 [Compound 21, (1S,2S)-2-Phenyl-cyclopropanecarboxylic acid [(R)-2-hydroxy-1-(6-propoxy-pyridin-3-yl)-ethyl]-amide] |
| 5.5 | O=C(N[C@@H](CO)c1ccc(C(F)(F)F)nc1)[C@H]1C[C@@H]1c1ccccc1 [Compound 22, (1S,2S)-2-Phenyl-cyclopropanecarboxylic acid [(R)-2-hydroxy-1-(6-trifluoromethyl-pyridin-3-yl)-ethyl]-amide] |
| 5.2 | COc1ccc([C@H](CO)NC(=O)[C@H]2C[C@@H]2c2ccccc2)cn1 [Compound 24, (1S,2S)-2-Phenyl-cyclopropanecarboxylic acid [(R)-2-hydroxy-1-(6-methoxy-pyridin-3-yl)-ethyl]-amide] |
| 7.3 | Cc1ccc([C@H](CO)NC(=O)[C@H]2C[C@@H]2c2ccccc2)cn1 [Compound 25, (1S,2S)-2-Phenyl-cyclopropanecarboxylic acid [(R)-2-hydroxy-1-(6-methyl-pyridin-3-yl)-ethyl]-amide] |
| 0.39 | CC(C)Oc1ccc([C@H](CO)NC(=O)[C@H]2C[C@@H]2c2ccccc2)cn1 [Compound 26, (1S,2S)-2-Phenyl-cyclopropanecarboxylic acid [(R)-2-hydroxy-1-(6-isopropoxy-pyridin-3-yl)-ethyl]-amide] |
| 0.39 | CCOc1ccc([C@H](CO)NC(=O)[C@H]2C[C@@H]2c2cccc(F)c2)cn1 [Compound 27, (1S,2S)-2-(3-Fluoro-phenyl)-cyclopropanecarboxylic acid [(R)-1-(6-ethoxy-pyridin-3-yl)-2-hydroxy-ethyl]-amide] |
| 0.62 | CCOc1ccc([C@H](CO)NC(=O)[C@H]2C[C@@H]2c2ccc(F)cc2)cn1 [Compound 28, (1S,2S)-2-(4-Fluoro-phenyl)-cyclopropanecarboxylic acid [(R)-1-(6-ethoxy-pyridin-3-yl)-2-hydroxy-ethyl]-amide] |
| 0.86 | CCCOc1ccc([C@H](CO)NC(=O)[C@H]2C[C@@H]2c2cccc(F)c2)cn1 [Compound 29, (1S,2S)-2-(3-Fluoro-phenyl)-cyclopropanecarboxylic acid [(R)-2-hydroxy-1-(6-propoxy-pyridin-3-yl)-ethyl]-amide] |

Further lines, the compound ahead of its results:

| Compound | EC50 [µM] |
| --- | --- |
| CC(C)Oc1ccc([C@H](C)NC(=O)[C@H]2C[C@@H]2c2ccccc2)cn1 [Compound 1, (1S,2S)-2-Phenyl-cyclopropanecarboxylic acid [(S)-1-(6-isopropoxy-pyridin-3-yl)-ethyl]-amide] | 0.67 |
| Cc1ccc([C@H](C)NC(=O)[C@H]2C[C@@H]2c2ccccc2)nc1 [Compound 2, (1S,2S)-2-Phenyl-cyclopropanecarboxylic acid [(S)-1-(5-methyl-pyridin-2-yl)-ethyl]-amide] | 5.6 |
| Cc1ccc([C@H](C)NC(=O)[C@H]2C[C@@H]2c2ccccc2)cn1 [Compound 4, (1S,2S)-2-Phenyl-cyclopropanecarboxylic acid [(S)-1-(6-methyl-pyridin-3-yl)-ethyl]-amide] | 8.1 |
| C[C@H](NC(=O)[C@H]1C[C@@H]1c1ccccc1)c1ccc(C#N)nc1 [Compound 5, (1S,2S)-2-Phenyl-cyclopropanecarboxylic acid [(S)-1-(6-cyano-pyridin-3-yl)-ethyl]-amide] | 7.7 |
| C[C@H](NC(=O)[C@H]1C[C@@H]1c1ccccc1)c1ccc(C(F)(F)F)nc1 [Compound 6, (1S,2S)-2-Phenyl-cyclopropanecarboxylic acid [(S)-1-(6-trifluoromethyl-pyridin-3-yl)-ethyl]-amide] | 5.2 |
| CCc1ccc([C@H](C)NC(=O)[C@H]2C[C@@H]2c2ccccc2)cn1 [Compound 8, (1S,2S)-2-Phenyl-cyclopropanecarboxylic acid [(S)-1-(6-ethyl-pyridin-3-yl)-ethyl]-amide] | 3.7 |
| COCc1ccc([C@H](C)NC(=O)[C@H]2C[C@@H]2c2ccccc2)cn1 [Compound 9, (1S,2S)-2-Phenyl-cyclopropanecarboxylic acid [(S)-1-(6-methoxymethyl-pyridin-3-yl)-ethyl]-amide] | 6.2 |
| C[C@H](NC(=O)[C@H]1C[C@@H]1c1ccccc1)c1ccc(OCC(F)(F)F)nc1 [Compound 10, (1S,2S)-2-Phenyl-cyclopropanecarboxylic acid {(S)-1-[6-(2,2,2-trifluoro-ethoxy)-pyridin-3-yl]-ethyl}-amide] | 1.9 |
| CCOc1cc([C@H](C)NC(=O)[C@H]2C[C@@H]2c2ccccc2)ccn1 [Compound 12, (1S,2S)-2-Phenyl-cyclopropanecarboxylic acid [(S)-1-(2-ethoxy-pyridin-4-yl)-ethyl]-amide] | 1.2 |
| C[C@H](NC(=O)[C@H]1C[C@@H]1c1ccccc1)c1ccc(O[C@H]2CCOC2)nc1 [Compound 13, (1S,2S)-2-Phenyl-cyclopropanecarboxylic acid [(S)-1-{6-[(S)-(tetrahydro-furan-3-yl)oxy]-pyridin-3-yl]-ethyl}-amide] | 1.6 |
| C[C@H](NC(=O)[C@H]1C[C@@H]1c1ccccc1)c1ccc(O[C@@H]2CCOC2)nc1 [Compound 14, (1S,2S)-2-Phenyl-cyclopropanecarboxylic acid [(S)-1-{6-[(R)-(tetrahydro-furan-3-yl)oxy]-pyridin-3-yl]-ethyl}-amide] | 1.6 |
| C[C@H](NC(=O)[C@H]1C[C@@H]1c1ccccc1)c1cnc2c(c1)OCO2 [Compound 15, (1S,2S)-2-Phenyl-cyclopropanecarboxylic acid ((S)-1-[1,3]dioxolo[4,5-b]pyridin-6-yl-ethyl)-amide] | 5.6 |
| C[C@H](NC(=O)[C@H]1C[C@@H]1c1ccccc1)c1cnc2c(c1)OCCO2 [Compound 16, (1S,2S)-2-Phenyl-cyclopropanecarboxylic acid [(S)-1-(2,3-dihydro-[1,4]dioxino[2,3-b]pyridin-7-yl)-ethyl]-amide] | 6.8 |
| CCOc1ncc([C@H](C)NC(=O)[C@H]2C[C@@H]2c2ccccc2)cn1 [Compound 17, (1S,2S)-2-Phenyl-cyclopropanecarboxylic acid [(S)-1-(2-ethoxy-pyrimidin-5-yl)-ethyl]-amide] | 3.7 |
| C[C@H](NC(=O)[C@H]1C[C@@H]1c1ccccc1)c1ccc(Cl)nc1 [Compound 18, (1S,2S)-2-Phenyl-cyclopropanecarboxylic acid [(S)-1-(6-chloro-pyridin-3-yl)-ethyl]-amide] | 3.7 |
| N#Cc1ccc([C@H](CO)NC(=O)[C@H]2C[C@@H]2c2ccccc2)nc1 [Compound 23, (1S,2S)-2-Phenyl-cyclopropanecarboxylic acid [(R)-1-(5-cyano-pyridin-2-yl)-2-hydroxy-ethyl]-amide] | 7.6 |
